Source: patent publication US20170334919A1, “2-((4-AMINO-3-(3-FLUORO-5-HYDROXYPHENYL)-1H-PYRAZOLO[3,4-D]PYRIMIDIN-1 -YL)METHYL)-3-(2-(TRIFLUORO-MET HYL)BENZYL)QUINAZOLIN-4(3H)-ONE DERIVATIVES AND THEIR USE AS PHOSPHOINOSITIDE 3-KINASE INHIBITORS” (RESPIVERT LTD., priority 2013, published 2017)
Read-outs that look alike come from different tables or passages of the source.

Legend:
[1] = test system: d-U937 cells; assay: MTT assay, cell viability; assay type: cell-based, human; details: 10 μg/mL
Method: PMA-differentiated U937 cells were pre-incubated with test compound (10 μg/mL) or vehicle for 4 hr in 5% FCS or 10% FCS for 24 hr. The supernatant was replaced with new media (200 μL) and MTT stock solution (10 μL, 5 mg/mL) was added to each well. After 1 hr incubation, the media were removed, 200 μL of DMSO was added to each well and the plates were shaken lightly for 1 hr prior to reading the absorbance at 550 nm. The percentage loss of cell viability was calculated for each well relative to vehicle (0.5% DMSO)-treatment.

[2] = test system: IFNγ-primed U937 cells; assay: Superoxide anion production assay (zymosan-induced ROS); assay type: cell-based; details: Homo sapiens, U-937; read-out: REC50, Zymosan-induced ROS production in IFNγ-primed U937 cells
Method: As a means of assessing PI3Kδ dependent cell function, superoxide anion production in IFNγ-primed U937 cells was evaluated by a chemiluminescence assay. The U937 cells (purchased from ATCC, Manassas, Va.) were maintained in RPMI 1640 (Invitrogen Ltd., Paisley, UK) with 10% FCS at 37° C. The cells were suspended at a density of 10^7cells/mL in 40 mL 10% FCS RPMI 1640, and treated with 20 μL of 100 μg/mL IFNγ solution (final concentration: 50 ng/mL), and incubated at 37° C., 5% CO2 for 4 days.
IFNγ-primed U937 cells were seeded at 0.2×10^6 cells/well in a 96-well plate, and pre-incubated with test compounds for 2 hr in starvation media (0.5% FCS RPMI1640-phenol red free). Zymosan A (10 mg) from Saccharomyses cerevisiae (ex Sigma-Aldlich) was resuspended in 1 mL of 150 mM NaCl and boiled at 100° C. for 15 min. After boiling, Zymosan particles were washed with 1 mL of PBS twice, and incubated with 0.5 mL of BioParticles™ opsonized reagents (Life technologies) for 60 min at 37° C. […] Chemiluminescence indicating released superoxide anion was measured every 15 min up to 60 min by luminometric measurement (Varioskan® Flash, Thermo-Fisher Scientific).
The data at 60 min after incubation was used for analysis. […] The relative EC50 values were calculated from the concentration-response curves generated by the serial dilutions of the test compounds using XL-Fit (idbs, Guildford, UK).

[3] = test system: PBMCs; assay: Cytostim-induced cytokine production in PBMCs; assay type: cell-based; details: Homo sapiens, PBMC
Method: As a means of assessing PI3Kδ-dependent cell function, cytostim-induced IL-4, IL-5, IL-13 and IFNγ production in PBMCs were evaluated by Luminex multiplex assay. All healthy volunteers were recruited by Quintiles Limited (London, UK), and blood samples were delivered to Respivert Ltd. This study was approved by the local Ethics Committee, and all subjects gave written informed consent.
PBMC suspensions (200 μL; 2×10^6 cells/mL) were added to a 96-well plate. Cells were treated with either test compounds in neat DMSO or DMSO as vehicle (2 μL) and incubated at RT for 1 hr. Cytostim (Miltentyi Biotec, Surrey, UK) was introduced at a ratio of 1:50 and the cells were incubated for 20 hr (37° C.; 5% CO2). Plates were spun at 500×g for 5 min and the supernatant collected. A high sensitivity cytokine magnetic bead kit (#HSCYTMAG-60SK, Millipore, Watford, UK) was used to measure the four analytes (IL-4, IL-5, IL-13 and IFNγ) by Luminex as follows: The magnetic antibody beads were multiplexed and incubated in a 96-well plate with standard, media only or sample (50 μL) overnight with shaking at 4° C. After washing twice with Millipore wash buffer provided in the kit using a magnetic plate washer, the beads were incubated for 1 hr with detection antibody (50 μL) with shaking at RT. A streptavidin-phycoerythrin solution provided in the kit was added for 30 min with shaking at RT. After washing, the beads were re-suspended in sheath fluid (150 μL) and analysed immediately. The Luminex system was set up to count 50 beads and the amount of each analyte in the supernatant was calculated against a standard curve. The IC50 values were determined from concentration-inhibition curves using XL-Fit (IDBS, Guildford, UK)

[4] = test system: THP1 cells; assay: Chemotaxis to MCP1; assay type: cell-based; details: Homo sapiens, THP-1; read-out: REC50, THP1 cell chemotaxis to MCP1
Method: As a means of assessing PI3K γ dependent cell function, THP1 cell chemotaxis to MCP-1 was evaluated using a 48 well-chemotaxis chamber. THP1 cells from a human leukemic monocyte lymphoma cell line, (purchased from ATCC Manassas, Va.) were maintained in RPMI 1640 (Invitrogen Ltd., Paisley, UK) with 10% FCS at 37° C. Cells were re-suspended in 0.5% BSA/RPM11640 (2×10^6 cells/mL) and incubated for 10 min at 37° C., 5% CO2. Cell suspension aliquots (500 μL) were then treated either with compounds in neat DMSO or with DMSO as vehicle (2.5 μL) for 1hr (37° C., 5% CO2).
MCP1 (50 nM) was prepared in 0.5% BSA/RPM11640. MCP1 solution (50 μL) was added to each well in the bottom plate of a 48-well chemotaxis chamber (AP48, NeuroProbe Inc., Gaithersburg, Md.). A polycarbonate membrane (8 μm) was mounted on the bottom chamber, and then the top plate was mounted on the bottom chamber and filter membrane. […]
A solution of MTT (50 μL) in 10% FCS phenol red-free RPM11640 was added to each well, and the plate was incubated for 2 hr (37° C., 5% CO2). Neat DMSO (100 μL) was added to each well to extract formazan formed from MTT and the plates were shaken lightly for 1 hr prior to measuring the absorbance at 595 nm (Varioskan® Flash, Thermo-Fisher Scientific). […] Relative EC50 values were determined from concentration-inhibition curves using XL-Fit (idbs, Guildford, UK).

[5] = test system: cigarette smoke-induced cell accumulation and biomarkers in murine BALF; assay: Cigarette smoke model; assay type: in vivo, A/J mice
Method: A/J mice (males, 5 weeks old) were exposed to cigarette smoke (4% cigarette smoke, diluted with compressed air) for 30 min/day for 11 days using a Tobacco Smoke Inhalation Experiment System for small animals (Model SIS-CS; Sibata Scientific Technology, Tokyo, Japan). Test substances were administered once daily for 3 days after the final cigarette smoke exposure (intra-nasal dose comprising 35 μL of solution in 50% DMSO/isotonic saline).
At 12 hr after administration of the last dose, animals were anesthetized, the trachea was cannulated and bronchial alveolar lavage (BAL) was carried out by the instillation into and then withdawal from the lungs, of PBS (100 mL/kg). Total cell numbers in the BALF samples were measured using a haemocytometer under a phase-contrast microscope. The proportions of alveolar macrophages and neutrophils were determined by FACS analysis using anti-mouse MOMA2-FITC (macrophage) or anti-mouse 7/4 (neutrophil).
Cells were suspended in PBS and were incubated with anti-MOMA2-FITC (2 μg/mL, Catalogue no SM065F, Acris Antibodies GmbH, Herford, Germany) or anti-7/4-FITC (2 μg/mL, Catalogue no CL050F, Acris Antibodies GmbH, Herford, Germany) for 30 min at 30° C., and also counterstained with propidium iodide (2 μg/mL) to allow exclusion of necrotic cells. The cells were washed with PBS, and transferred to FACS tubes. Samples was set in a flow cytometer (ALTRA II; Beckman Coulter Japan, Tokyo, Japan), and a single-parameter FL2 [PMT2] (FITC) histogram with log x-axis was plotted to illustrate relative intensity of FITC.
Data files are stored for subsequent analysis using Kaluza analysis software (ver. 1.2) to calculate the proportion of each cell type. The levels of CXCL1(KC), MCP1, TNFα, IL-17 or osteopontin in BALF were determined using Quentikine® mouse KC, MCP1, TNFα, IL-17 or osteopontin ELISA kit (R&D systems, Inc., Minneapolis, Minn., USA). The presence of malondialdehyde was measured using OxiSelect® TBARS Assay Kit (MDA Quantitation; Cell Biolabs Inc, San Diego, Calif., USA).

Nc1ncnc2c1c(-c1cc(O)cc(F)c1)nn2Cc1nc2cccc(C#CCOCCOCCO)c2c(=O)n1Cc1ccccc1C(F)(F)F [Compound (Ia), 2-((4-Amino-3-(3-fluoro-5-hydroxyphenyl)-1H-pyrazolo[3,4-d]pyrimidin-1-yl)methyl)-5-(3-(2-(2-hydroxyethoxy)ethoxy)prop-1-yn-1-yl)-3-(2-(trifluoromethyl)benzyl)quinazolin-4(3H)-one]
Cell Viability MTT Assay in d-U937 cells at 4 hr ([1]; 4 hr): −ve (−ve indicates a value of <30% inhibition at 10 μg/mL)
Cell Viability MTT Assay in d-U937 cells at 24 hr ([1]; 24 hr): −ve (−ve indicates a value of <30% inhibition at 10 μg/mL)
EC50 [2]: 143 nM
IC50 ([3]; read-out: IC50, Cytostim-induced IFNγ in PBMCs): 60.8 nM
IC50 ([3]; read-out: IC50, Cytostim-induced IL-4 in PBMCs): 674 nM
IC50 ([3]; read-out: IC50, Cytostim-induced IL-5 in PBMCs): 14.5 nM
IC50 ([3]; read-out: IC50, Cytostim-induced IL-13 in PBMCs): 6.1 nM
EC50 [4]: > 14200 nM

CCC(=O)O[C@]1(C(=O)SCF)[C@H](C)C[C@H]2[C@@H]3C[C@H](F)C4=CC(=O)C=C[C@]4(C)[C@@]3(F)[C@@H](O)C[C@@]21C [fluticasone propionate, reference compound]
effect as monotherapy in the cigarette smoke model ([5]; dose used for co-administration with compound (I)): lacks any significant effect as monotherapy

C[C@@H]1C[C@H]2[C@@H]3CCC4=CC(=O)C=C[C@]4(C)[C@@]3(F)[C@@H](O)C[C@]2(C)[C@@]1(O)C(=O)CO [dexamethasone, reference compound]
activity in the cigarette smoke model ([5]; 0.3-10 mg/kg, p.o.): inactive
